Consider 10 compounds from ChEMBL document CHEMBL1201862, “PubChem BioAssay data set” (2004).

Some test systems named below: Hs-578T; NCI-H23; SF-539; HT-29; SK-MEL-28; OVCAR-8; KM12; CCRF-CEM; MDA-MB-231; UO-31; SR; HCT-116; BT-549; OVCAR-4; SNB-75; SK-MEL-5; TK-10; UACC-62; NCI-H460; OVCAR-5.
Holding throughout (assay): DTP human tumour cell line panel, 48 h

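Protocol summary: plate cells (96-well), add compound at 5 concentrations, incubate 48 h, interpolate endpoints linearly. GI50 = concentration required for 50% inhibition of growth.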 Activity calls are given as the source filed them. Rule as the data show it: active = GI50 up to about 1.1 µM and inactive = higher.

In the case of `CCOC(=O)C1=C(C)N(C)C(=S)NC1c1cccc(O)c1` (centres undefined), the GI50 – broadly, the concentration that inhibits growth by half – with Hs-578T is 46.7 µM (inactive); in the assay on NCI-H23, 26.4 µM (inactive); in the assay with SF-539, 53.2 µM (inactive); with HT-29 it was 38.9 µM (inactive); in the assay with SK-MEL-28, 49.1 µM (inactive); in the assay with OVCAR-8, 32.6 µM (inactive). Moreover, the GI50 was 29 µM (inactive) with KM12; 21.4 µM (inactive) in the assay on CCRF-CEM; 46.6 µM (inactive) with MDA-MB-231; 81.5 µM (inactive) with UO-31; 16.9 µM (inactive) in the assay on SR; 25.6 µM (inactive) in the assay with HCT-116. The GI50 in the assay on BT-549 was 32.9 µM (inactive); with OVCAR-4, 36.3 µM (inactive); with SNB-75, 24.7 µM (inactive); with SK-MEL-5, 18.5 µM (inactive); in the assay on TK-10, > 100 µM (inactive); with UACC-62, 63.7 µM (inactive). In addition, the GI50 in the assay on NCI-H460 was 38.2 µM (inactive); in the assay on OVCAR-5, 64.1 µM (inactive).
Take `CC(C)=CCC[C@@H](C)c1c2ncc[nH]c-2c(C)c(=O)c1O`: the GI50 is 23.2 µM (inactive) in the assay on Hs-578T; 22.4 µM (inactive) in the assay with NCI-H23; 22.2 µM (inactive) in the assay with SF-539; 27.4 µM (inactive) with HT-29; 48.5 µM (inactive) in the assay on SK-MEL-28; 10 µM (inactive) with OVCAR-8. Also, the GI50 in the assay with KM12 is 10.6 µM (inactive); with CCRF-CEM it was 4.53 µM (inactive); in the assay on MDA-MB-231, 25.2 µM (inactive); in the assay on UO-31, 6.92 µM (inactive); in the assay with SR, 51.3 µM (inactive); with HCT-116, 37.1 µM (inactive). The GI50 with BT-549 is 30.8 µM (inactive); in the assay on OVCAR-4, 26.1 µM (inactive); with SNB-75, 28.2 µM (inactive); in the assay with SK-MEL-5 it was 11.7 µM (inactive); in the assay with TK-10 it was 31.1 µM (inactive); in the assay with UACC-62 it was 18.7 µM (inactive). Further, the GI50 with NCI-H460 is 10.8 µM (inactive); in the assay with OVCAR-5, 45.6 µM (inactive).
In the case of `CN(C)Cc1cc(/N=N/c2ccccc2Cl)ccc1O`, the GI50 is 16.7 µM (inactive) in the assay on Hs-578T; 24.7 µM (inactive) in the assay with NCI-H23; 24.3 µM (inactive) in the assay with SF-539; 14.2 µM (inactive) with HT-29; 16.9 µM (inactive) with SK-MEL-28; 6.05 µM (inactive) in the assay with OVCAR-8. In addition, the GI50 is 25.9 µM (inactive) in the assay with KM12; 17.4 µM (inactive) in the assay on CCRF-CEM; 18.2 µM (inactive) in the assay on MDA-MB-231; 12.9 µM (inactive) in the assay with UO-31; 26.5 µM (inactive) in the assay on SR; 28.1 µM (inactive) in the assay on HCT-116. Also, the GI50 with BT-549 was 17 µM (inactive); in the assay on OVCAR-4 it was 52.6 µM (inactive); in the assay on SNB-75 it was 18.7 µM (inactive); in the assay with SK-MEL-5 it was 11.9 µM (inactive); with TK-10, 22.1 µM (inactive); in the assay with UACC-62, 18.6 µM (inactive). For the same compound, the GI50 in the assay on NCI-H460 is 5.98 µM (inactive); in the assay with OVCAR-5 it was 22.9 µM (inactive).
Consider `O=C(Cc1nc2ccccc2[nH]c1=O)c1c[nH]c2ccccc12`, for which the GI50 is 49 µM (inactive) with Hs-578T; 20.4 µM (inactive) with NCI-H23; 19.2 µM (inactive) with SF-539; 6.08 µM (inactive) in the assay on HT-29; 14.1 µM (inactive) in the assay with OVCAR-8; 5.77 µM (inactive) with KM12. Moreover, the GI50 is 4.3 µM (inactive) with CCRF-CEM; 19.1 µM (inactive) in the assay with MDA-MB-231; 11.9 µM (inactive) in the assay with UO-31; 4.42 µM (inactive) with SR; 13.8 µM (inactive) in the assay with HCT-116; 12.2 µM (inactive) in the assay with BT-549. Moreover, the GI50 with OVCAR-4 is 11.4 µM (inactive); with SNB-75 it was 25.1 µM (inactive); in the assay on SK-MEL-5 it was 10.8 µM (inactive); with TK-10 it was 7.57 µM (inactive); with UACC-62, 13.6 µM (inactive); in the assay on NCI-H460, 6.58 µM (inactive). Moreover, in the assay with OVCAR-5, the GI50 is 23.6 µM (inactive).
In the case of `O=C1CN2CCN(CC2)CC(=O)Nc2ccc(cc2)S(=O)(=O)c2ccc(cc2)NC(=O)CN2CCN(CC2)CC(=O)Nc2ccc(cc2)S(=O)(=O)c2ccc(cc2)N1`, the GI50 was > 100 µM (inactive) with Hs-578T; 44 µM (inactive) in the assay with NCI-H23; 23.3 µM (inactive) with SF-539; 15 µM (inactive) with HT-29; 48.4 µM (inactive) in the assay on SK-MEL-28; 38.8 µM (inactive) in the assay on OVCAR-8. The GI50 is 32.2 µM (inactive) with KM12; 0.31 µM (active) in the assay with CCRF-CEM; 16.1 µM (inactive) in the assay on MDA-MB-231; > 92.5 µM (inactive) in the assay on UO-31; 4.56 µM (inactive) in the assay on SR; 14.8 µM (inactive) in the assay on HCT-116. The GI50 with BT-549 is 31.5 µM (inactive); in the assay with OVCAR-4, > 100 µM (inactive); with SNB-75, > 100 µM (inactive); in the assay with SK-MEL-5, 31.8 µM (inactive); in the assay with TK-10 it was > 92.7 µM (inactive); in the assay on UACC-62, 40.1 µM (inactive). Moreover, the GI50 with NCI-H460 was 19.5 µM (inactive); in the assay on OVCAR-5, 37.3 µM (inactive).
Consider `COc1ccc(C(=O)c2ccc(-n3cc(/C=C/[N+](=O)[O-])c4ccccc43)cc2)cc1`, for which the GI50 in the assay with Hs-578T is 7.57 µM (inactive); with NCI-H23, 20.1 µM (inactive); in the assay with SF-539 it was 14.7 µM (inactive); with HT-29 it was 23.9 µM (inactive); in the assay with SK-MEL-28, 28.1 µM (inactive); with OVCAR-8, 20.3 µM (inactive). For the same compound, the GI50 in the assay with KM12 is 20.7 µM (inactive); with CCRF-CEM it was 2.58 µM (inactive); in the assay with MDA-MB-231, 19.3 µM (inactive); in the assay on UO-31, 19.5 µM (inactive); with SR it was 8.81 µM (inactive); with HCT-116 it was 10.6 µM (inactive). The GI50 in the assay on BT-549 was 15.5 µM (inactive); with OVCAR-4 it was 29.4 µM (inactive); in the assay on SNB-75, 91 µM (inactive); in the assay on SK-MEL-5 it was 21.6 µM (inactive); in the assay on TK-10, 6.3 µM (inactive); with UACC-62, 14.4 µM (inactive). Moreover, the results for the GI50 with NCI-H460 and in the assay on OVCAR-5 were 35.9 µM (inactive) and > 76.4 µM (inactive), respectively.
Consider `O=C(O)C1(Cc2ccc3c(c2)CCC3)Cc2ccccc2C1=O` (centres undefined), for which the GI50 is 47.4 µM (inactive) with Hs-578T; 46.2 µM (inactive) in the assay on NCI-H23; 49.1 µM (inactive) in the assay with SF-539; > 100 µM (inactive) in the assay on HT-29; > 100 µM (inactive) with SK-MEL-28; 83 µM (inactive) with OVCAR-8. The GI50 in the assay with KM12 was 39.7 µM (inactive); in the assay on CCRF-CEM it was 35.5 µM (inactive); in the assay with MDA-MB-231 it was > 100 µM (inactive); with UO-31, 56 µM (inactive); with SR, 59 µM (inactive); in the assay on HCT-116, 39 µM (inactive). Besides, the GI50 in the assay with BT-549 is 37.8 µM (inactive); in the assay on OVCAR-4, 55.6 µM (inactive); with SNB-75, 38.8 µM (inactive); with SK-MEL-5, 79.4 µM (inactive); with TK-10 it was > 100 µM (inactive); in the assay with UACC-62, 57.9 µM (inactive). In addition, the GI50 with NCI-H460 was 50.1 µM (inactive); with OVCAR-5 it was > 100 µM (inactive).
In the case of `O=C1c2ccccc2-c2cc([N+](=O)[O-])c([N+](=O)[O-])cc21`, the GI50 is 3.78 µM (inactive) in the assay with Hs-578T; 1.91 µM (inactive) in the assay on NCI-H23; 0.485 µM (active) with SF-539; 1.91 µM (inactive) in the assay with HT-29; 2.9 µM (inactive) in the assay with SK-MEL-28; 1.64 µM (inactive) in the assay on OVCAR-8. Also, the GI50 in the assay with KM12 is 1.61 µM (inactive); in the assay on CCRF-CEM it was 0.243 µM (active); with MDA-MB-231, 1.8 µM (inactive); with UO-31, 1.67 µM (inactive); in the assay with SR, 0.13 µM (active); with HCT-116, 1.94 µM (inactive). The GI50 with BT-549 was 1.92 µM (inactive); in the assay on OVCAR-4, 1.81 µM (inactive); with SNB-75, 1.82 µM (inactive); in the assay with SK-MEL-5, 1.87 µM (inactive); in the assay on TK-10 it was 1.48 µM (inactive); in the assay on UACC-62 it was 1.66 µM (inactive). Also, the GI50 was 1.51 µM (inactive) in the assay on NCI-H460 and 2.18 µM (inactive) in the assay with OVCAR-5.
In the case of `CC(=O)NC1C(OCc2ccccc2)OC(CO)C(O)C1OCC(=O)N[C@@H](C)C(=O)N[C@H](CCC(=O)NCCCNc1c2ccccc2nc2cccc([N+](=O)[O-])c12)C(N)=O` (some centres undefined), the GI50 was 0.156 µM (active) with Hs-578T; 0.0248 µM (active) in the assay with NCI-H23; 0.0298 µM (active) with SF-539; < 0.0149 µM (active) in the assay on HT-29; 0.205 µM (active) with SK-MEL-28; 0.0746 µM (active) in the assay with OVCAR-8. In addition, the GI50 was 0.037 µM (active) in the assay on KM12; 0.052 µM (active) in the assay on CCRF-CEM; 0.05 µM (active) in the assay with MDA-MB-231; 0.123 µM (active) in the assay on UO-31; 0.0249 µM (active) in the assay with SR; < 0.0127 µM (active) with HCT-116. In addition, the GI50 is 0.0845 µM (active) in the assay with BT-549; 0.0418 µM (active) with OVCAR-4; 0.122 µM (active) in the assay with SNB-75; 0.0148 µM (active) in the assay with SK-MEL-5; 0.0253 µM (active) in the assay on TK-10; 0.0321 µM (active) in the assay on UACC-62. The GI50 was 0.0101 µM (active) in the assay on NCI-H460 and 0.0718 µM (active) in the assay on OVCAR-5.
In the case of `COc1ccc(COCC[C@H](C)OC2OC(CO)C(O)C(O)C2O)cc1` (some centres undefined), the GI50 in the assay on Hs-578T, in the assay with NCI-H23, in the assay with SF-539, with HT-29, with SK-MEL-28 and with OVCAR-8 was > 100 µM (inactive) in each case. Also, the GI50 in the assay on KM12, with CCRF-CEM, in the assay on MDA-MB-231, in the assay with UO-31, in the assay on SR and in the assay on HCT-116 was > 100 µM (inactive) each time. Further, the GI50 with BT-549, in the assay with OVCAR-4, in the assay on SNB-75, in the assay on SK-MEL-5, in the assay with TK-10 and with UACC-62 was > 100 µM (inactive) each time. The GI50 in the assay on NCI-H460 and with OVCAR-5 was > 100 µM (inactive) each time.
